PubChem BioAssay (NCI)
Values joined by “and” are separate entries in the source; they are usually repeats but may differ in a detail not shown here. Equal values may be shown once.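 48-hour exposure; five concentrations; linearly interpolated endpoints. Here, GI50 denotes the concentration required for 50% inhibition of growth. TGI: total growth inhibition.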

Columns and labels:
Assay in all cases: DTP human tumour cell line panel, 48 h
BT-549 breast = test system: BT-549 breast
MDA-N = test system: MDA-N
DMS 273 small cell lung = test system: DMS 273 small cell lung
HOP-18 NSCLC = test system: HOP-18 NSCLC
LXFL 529 NSCLC = test system: LXFL 529 NSCLC
M19-MEL melanoma = test system: M19-MEL melanoma
SNB-78 CNS = test system: SNB-78 CNS
XF 498 CNS = test system: XF 498 CNS
RXF-631 renal = test system: RXF-631 renal

Row | Compound | GI50 (BT-549 breast) | TGI (BT-549 breast) | TGI (DMS 273 small cell lung) | TGI (LXFL 529 NSCLC) | TGI (M19-MEL melanoma) | also measured
1 | CCCCCCCCCCCCOC1C(CNC(=O)C2OC3OC(C)(C)OC3C2NC(=O)CN2CCN(c3ccc(OC)cc3)CC2)OC2OC(C)(C)OC21 (configuration not stated) | 6.19 µM | 17.4 µM | – | – | – | –
2 | O=C(NCC1CCCO1)c1ccc(NC2=C(Cl)C(=O)N(Cc3ccccc3)C2=O)cc1 (configuration not stated) | 16.7 µM | 33.9 µM | – | – | – | –
3 | O=[N+]([O-])c1cc([N+](=O)[O-])c(Nn2c3ccccc3c3ccccc32)c([N+](=O)[O-])c1 | 0.278 µM | 7.32 µM and 1.23 µM | – | – | – | TGI (MDA-N): 12.2 µM
4 | Cc1nc2c(o1)C(=Nc1ccccc1)c1nc(C)oc1C2=Nc1ccccc1 | – | – | 50.5 µM | 45.1 µM | 47.6 µM | TGI (HOP-18 NSCLC): 52.9 µM; TGI (SNB-78 CNS): > 100 µM; TGI (XF 498 CNS): 33.2 µM
5 | Cc1cc2c(-c3nc4ccccn4c3N)c(O)c(O)cc2c(O)c1-c1c(C)cc2c(-c3nc4ccccn4c3N)c(O)c(O)cc2c1O | 0.145 µM | > 25 µM | – | – | – | –
6 | O=C(/C=C/c1cccc([N+](=O)[O-])c1)c1ccc([N+](=O)[O-])cc1 | – | – | > 100 µM | > 100 µM | > 100 µM | TGI (RXF-631 renal): > 100 µM; TGI (SNB-78 CNS): > 100 µM; TGI (XF 498 CNS): > 100 µM
7 | CC1NC(=O)C2=C1C(=O)NC(=O)C2 (configuration not stated) | > 100 µM | > 100 µM | – | – | – | –
8 | CC(=O)[C@H]1CCC/C=C/[C@@H]2C[C@H](O)C[C@H]2[C@H](O)/C=C/C(=O)O1 | 0.657 µM | > 100 µM | – | – | – | –
9 | CN1CCN(C(=O)COc2ccc(/C=C3\CC4C5CC=C6CC(Cl)CCC6(C)C5CCC4(C)C3=O)cc2)CC1 (configuration not stated) | 96.1 µM | > 100 µM | – | – | – | –
10 | CN(/N=C/c1ccnc2ccccc12)c1c([N+](=O)[O-])cc([N+](=O)[O-])cc1[N+](=O)[O-] | – | – | > 100 µM | > 100 µM | > 100 µM | TGI (HOP-18 NSCLC): > 100 µM; TGI (SNB-78 CNS): > 100 µM; TGI (XF 498 CNS): > 100 µM
11 | Oc1c(Cl)cc(Cl)c2ccc(Cn3cc(-c4ccc(C(F)(F)F)cc4)nn3)nc12 | 1.94 µM | 5.22 µM | – | – | – | –
12 | Cc1cc(-c2cc(O)ccc2Cl)cc2nnc(Nc3ccc(OCCN4CCCC4)cc3)nc12 | 1.45 µM | 3.16 µM | – | – | – | –
13 | CC(=O)c1cc(C(=O)c2ccc3c(c2)Sc2ccccc2N3)n2ccccc12 | 0.00773 µM and 0.0262 µM | > 33.2 µM | – | – | – | –
14 | Clc1cccc(-c2nnc(-c3nn(-c4ccccc4)c4nc5ccccc5nc34)o2)c1 | – | – | > 100 µM | > 100 µM | > 100 µM | TGI (HOP-18 NSCLC): > 100 µM; TGI (SNB-78 CNS): > 100 µM; TGI (XF 498 CNS): > 100 µM
15 | COc1cc(C2c3cc4c(cc3C(OC(=O)C[n+]3ccccc3)C3COC(=O)C23)OCO4)cc(OC)c1OC (configuration not stated) | < 0.01 µM | > 100 µM | – | – | – | –
16 | CC(=O)[CH-]C(=O)c1ccccc1.CC(=O)[CH-]C(=O)c1ccccc1.CC(=O)[CH-]C(=O)c1ccccc1.[Nd+3].[OH3+] | – | – | – | > 100 µM | > 100 µM | GI50 (LXFL 529 NSCLC): 71.1 µM; GI50 (M19-MEL melanoma): 31.4 µM
17 | C#CCN(c1ccc(C(=O)N[C@@H](CCC(=O)N[C@H](CCC(=O)O)C(=O)O)C(=O)O)cc1)C1CCc2cc3nc(CO)[nH]c(=O)c3cc21 (some centres not stated) | 58 µM | > 100 µM | – | – | – | –
18 | O=C1c2ccccc2C2CCC1c1ccccc12 (configuration not stated) | – | – | 71.4 µM | > 100 µM | 96.1 µM | TGI (HOP-18 NSCLC): > 100 µM; TGI (SNB-78 CNS): > 100 µM; TGI (XF 498 CNS): 91.6 µM

Row | Compound | GI50 (BT-549 breast) | TGI (BT-549 breast) | TGI (DMS 273 small cell lung) | TGI (LXFL 529 NSCLC) | TGI (M19-MEL melanoma) | also measured
19 | Clc1ccccc1-c1nnc2c(Cc3ccccc3)nc3ccccc3n12 | > 25.9 µM | > 100 µM | – | – | – | –
20 | COc1ccc(/C=C2/SC(Nc3nc(-c4nc(NC5=NC(=O)/C(=C\c6ccc(OC)cc6)S5)sc4C)c(C)s3)=NC2=O)cc1 | 2.23 µM | 22.2 µM | – | – | – | –
21 | CC1=CC(C)(C)NN1C1=NS(=O)(=O)c2ccccc2N1C | – | > 100 µM | – | – | – | TGI (MDA-N): > 100 µM
22 | Cn1cc(-c2cnn3c(N)c(Br)c(C4CCCNC4)nc23)cn1 (configuration not stated) | 0.922 µM | 32.5 µM | – | – | – | –
23 | N#CC(C(=O)/C(=N\NC(N)=O)C(C#N)c1ccccc1)c1ccccc1 (configuration not stated) | – | – | > 100 µM | > 100 µM | – | TGI (RXF-631 renal): > 100 µM; TGI (SNB-78 CNS): > 100 µM
24 | Cn1c2c(c3c(Cl)nncc31)Cc1ccccc1-2 | 20.7 µM | 64.9 µM | – | – | – | –
25 | COc1cc(/C=N/N=C(\N)NO)c(Cl)cc1O | – | – | – | > 100 µM | > 100 µM | TGI (SNB-78 CNS): > 100 µM
26 | O=C1C=CC(=O)c2c(O)c3c(c(O)c21)C[C@H](O)[C@H](O)[C@@H]3O | – | 2.81 µM | – | – | – | TGI (MDA-N): 2.95 µM
27 | COC(=O)c1cc2c3ccccc3n3c2c(n1)-c1[nH]c2ccccc2c(=O)c1C3 | 22.6 µM | 63.2 µM | – | – | – | –
28 | Clc1cccc(C2N3CCCCC3[C@@H]3c4[nH]c5ccccc5c4CCN23)c1 (some centres not stated) | – | – | > 100 µM | – | 48 µM | TGI (HOP-18 NSCLC): > 100 µM; TGI (XF 498 CNS): 40 µM
29 | CCNC(=O)OCc1c(COC(=O)NCC)c(-c2ccc(Cl)c(Cl)c2)n2c1CCC2 | – | – | 31.1 µM | 34.8 µM | 58.1 µM | TGI (XF 498 CNS): 36.3 µM
30 | CCCCCCCC/C=C/CCCCCCCC1=NC(C)(C)CN1CCO | 5.76 µM | 19.6 µM | – | – | – | –
31 | c1ccc(CNCCN(CCNCc2ccccn2)Cc2ccc3ccccc3c2)nc1 | 2.87 µM | 10.9 µM | – | – | – | –
32 | COc1ccc([C@@]23Oc4cc(OC)cc(OC)c4[C@]2(O)[C@H](O)[C@H](C(N)=O)[C@H]3c2ccccc2)cc1 | – | 0.0847 µM and < 0.0226 µM | – | – | – | –
33 | CC(=O)[C@H]1CCC2[C@@H]3CC=C4C[C@@H]([O-])CC[C@]4(C)C3CC[C@@]21C.CC(=O)[C@H]1CCC2[C@@H]3CC=C4C[C@@H]([O-])CC[C@]4(C)C3CC[C@@]21C.CC(=O)[CH-]C(=O)c1ccccc1.CC(=O)[CH-]C(=O)c1ccccc1.Cl.[Ti+4] (some centres not stated) | – | – | > 100 µM | > 100 µM | > 100 µM | GI50 (DMS 273 small cell lung): 30.3 µM; GI50 (HOP-18 NSCLC): 42.9 µM; TGI (HOP-18 NSCLC): > 100 µM; GI50 (LXFL 529 NSCLC): 32.1 µM; GI50 (M19-MEL melanoma): 43.5 µM
34 | COc1ccc(S(=O)(=O)N(CC(=O)O)c2ccccc2)cc1 | – | – | > 100 µM | > 100 µM | > 100 µM | TGI (HOP-18 NSCLC): > 100 µM
35 | O=c1c(Cl)c(Cl)cnn1CCCl | – | 13.9 µM | 21 µM | 3.1 µM | 8.75 µM | TGI (SNB-78 CNS): 30.7 µM; TGI (XF 498 CNS): 11.7 µM
36 | Nc1ccccc1C(=O)CCC1C(=O)NC(=S)NC1=O | – | – | > 100 µM | > 100 µM | > 100 µM | TGI (HOP-18 NSCLC): > 100 µM; TGI (MDA-N): > 100 µM; TGI (RXF-631 renal): > 100 µM
